In paper PMC8062851, “2-Methoxyestradiol and its derivatives inhibit store-operated Ca^2+ entry in T cells: Identification of a new and potent inhibitor” (Biochimica et Biophysica Acta. Molecular Cell Research, 2021):
Where two headings read alike, the source gives them in different places.

Assays:
[1] = test system: SOCE in Jurkat T cells; assay: Inhibition during activated SOCE (thapsigargin or anti-CD3 OKT3, 1 mM extracellular Ca2+) in Jurkat T cells; assay type: cell-based, human; conditions: for IC50: Homo sapiens, Jurkat, 1 mM extracellular Ca2+
Procedure: (§1) Jurkat T-lymphocytes, primary human CD4^+ T cells and H1299 cells were pelleted at 450 ×g for 5 min, rat TMBP at 300 ×g for 8 min at room temperature and were resuspended in 1 ml of either standard JMP medium (Jurkat, H1299 and human CD4^+ T cells) or standard DMEM based medium containing 10% fetal bovine serum (FBS) (v/v) (TMBP cells). Resting TMBP cells (day 5–7 after re-stimulation) after the second to fifth re-stimulation were thawed from liquid nitrogen 12 to 40 h prior to Fura2-loading. After pre-incubation for 5 min at 37 °C, cells were incubated with 4 μM Fura2-AM for 15 min at 37 °C. After addition of the dye, cells were kept in the dark. Afterwards, cells and the dye were diluted by addition of 4 ml standard medium and incubated for another 15 min. Cells were washed twice in Ca^2+ buffer (140 mM NaCl, 5 mM KCl, 1 mM MgSO4, 1 mM CaCl2, 1 mM NaH2PO4, 20 mM HEPES, 5.5 mM glucose; pH 7.4 (NaOH), sterile filtered) and were diluted to a concentration of 2*10^6 cells/ml. Subsequently, cells were kept at room temperature for 20 min for de-esterification before the start of the first measurement.
10^6 Jurkat T-lymphocytes, H1299 cells, TMBP cells or 4*10^6 primary human CD4^+ T cells were added into a 10 × 10 mm quartz glass cuvette (Hellma Analytics, Germany) that was placed into a fluorescence spectrophotometer (F-2710, Hitachi, Japan). In experiments using a Ca^2+ free/Ca^2+ re-addition protocol, cells were pelleted as described for Fura2 loading and Ca^2+ buffer was exchanged by 1 ml nominal Ca^2+ free buffer (140 mM NaCl, 5 mM KCl, 1 mM MgSO4, 1 mM NaH2PO4, 20 mM HEPES, 5.5 mM glucose; pH 7.4 (NaOH), sterile filtered) immediately before starting the measurement. The measurement was controlled by FL Solutions (Version 4.1, Hitachi High-Technologies Corporation). Fura2 was alternatively excited every 2 s at 340 ± 5 nm and 380 ± 5 nm, each 400 ms apart. Fluorescence intensity was measured at an emission wavelength of 495 ± 5 nm for both excitation wavelengths.
Finally, every measurement was calibrated using 0.1% (v/v) Triton X-100 to obtain a maximal ratio and 4 mM EGTA and 30 mM Tris to obtain a minimal ratio. […]
Besides the Ca^2+ free/Ca^2+ re-addition protocol, we also characterized the effect of STX564 in cells during activated SOCE in the presence of thapsigargin (TG, Fig. 2A,B) or upon stimulation via their TCR/CD3 complex (Fig. 2C). […]. […] Similarly, in Fig. 2C this effect of a partial or full recovery of SOCE was also observed, a few minutes after STX564 addition.

[2] = test system: SOCE in rat TMBP cells; assay: SOCE inhibition, Ca2+ free/Ca2+ re-addition protocol in primary rat TMBP cells; assay type: cell-based
Procedure: as §1, with “Subsequently, cells were kept at room temperature for 20 min for de-esterification before the start of the first measurement.” left out
10^6 Jurkat T-lymphocytes, H1299 cells, TMBP cells or 4*10^6 primary human CD4^+ T cells were added into a 10 × 10 mm quartz glass cuvette (Hellma Analytics, Germany) that was placed into a fluorescence spectrophotometer (F-2710, Hitachi, Japan). […] Fluorescence intensity was measured at an emission wavelength of 495 ± 5 nm for both excitation wavelengths. […]

Compound: CCc1cc2c(cc1OS(N)(=O)=O)CC[C@@H]1[C@@H]2CC[C@]2(C)[C@@H](CC#N)CC[C@@H]12 [STX564, 2-ethyl-3-sulfamoyloxy-17β-cyanomethylestra-1,3,5(10)-triene]
- IC50 ([1]; read-out: IC50 of SOCE inhibition during active SOCE, Jurkat T cells stimulated by 1 μM thapsigargin (TG)): 3000 nM
- IC50 ([1]; read-out: IC50 of SOCE inhibition during active SOCE, Jurkat T cells stimulated by 1 μg/ml αCD3 (OKT3)): 2000 nM
- extent of inhibition when added during activated SOCE ([1]; Jurkat T cells, TG or TCR/CD3 stimulation): only partial inhibition
- IC50 [2]: 800 nM
